From patent US9113629B2, “4-amino-6-(4-substituted-phenyl)-picolinates and 6-amino-2-(4-substituted-phenyl)-pyrimidine-4-carboxylates and their use as herbicides” (DOW AGROSCIENCES LLC, priority 2013, dated 2015)
Read-outs that look alike come from different tables or passages of the source.

How the values were obtained:
[1] = system: Key Grass and Sedge Weeds as well as Grass Crops; test: Post-emergent Test II herbicidal activity (Table 6); type: in vivo; settings: post-emergence, 336 h; for pest or weed control at 70 g/ha: 70 g ai/ha; for pest or weed control at 140 g/ha: 140 g ai/ha
Outline: (§1)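 Greenhouse-grown plants at first or second true leaf stage were sprayed post-emergence with compound in acetone/DMSO-based aqueous spray containing crop oil concentrate and surfactant, at 187 L/ha, highest rate plus ½× to 1/16× dilutions. After 14 d, injury was scored visually versus untreated plants, 0 (none) to 100% (complete kill).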

[2] = system: Key Broadleaf Weed and Crop Species; test: Post-emergent Test II herbicidal activity (Table 5); type: in vivo; settings: post-emergence, 336 h, 14 days after application; for pest or weed control at 70 g/ha: application rate 70 g ai/ha; for pest or weed control at 140 g/ha: application rate 140 g ai/ha
Outline: as §1

[3] = CYPES: yellow nutsedge (Cyperus esculentus), read-out: Visual Growth Reduction (%) 14 Days After Application, CYPES
[4] = DIGSA: crabgrass (Digitaria sanguinalis), read-out: Visual Growth Reduction (%) 14 Days After Application, DIGSA
[5] = ECHCG: barnyardgrass (Echinochloa crus-galli), read-out: Visual Growth Reduction (%) 14 Days After Application, ECHCG
[6] = ORYSA: rice (Oryza sativa), crop, read-out: Visual Growth Reduction (%) 14 Days After Application, ORYSA
[7] = SETFA: giant foxtail (Setaria faberi), read-out: Visual Growth Reduction (%) 14 Days After Application, SETFA
[8] = SORVU: grain sorghum (Sorghum vulgare), read-out: Visual Growth Reduction (%) 14 Days After Application, SORVU
[9] = TRZSS (wheat, Triticum aestivum), crop, read-out: Visual Growth Reduction (%) 14 Days After Application, TRZSS
[10] = ZEAMX: maize, corn (Zea mays), crop, read-out: Visual Growth Reduction (%) 14 Days After Application, ZEAMX
[11] = ABUTH: velvetleaf (Abutilon theophrasti), read-out: Visual Growth Reduction (%) 14 Days After Application, ABUTH
[12] = AMARE: redroot pigweed (Amaranthus retroflexus), read-out: Visual Growth Reduction (%) 14 Days After Application, AMARE
[13] = BRSNN: oilseed-rape, canola (Brassica napus), read-out: Visual Growth Reduction (%) 14 Days After Application, BRSNN
[14] = CHEAL: lambsquarters (Chenopodium album), read-out: Visual Growth Reduction (%) 14 Days After Application, CHEAL
[15] = EPHHL: wild poinsettia (Euphorbia heterophylla), read-out: Visual Growth Reduction (%) 14 Days After Application, EPHHL
[16] = HELAN: sunflower (Helianthus annuus), read-out: Visual Growth Reduction (%) 14 Days After Application, HELAN
[17] = VIOTR: wild pansy (Viola tricolor), read-out: Visual Growth Reduction (%) 14 Days After Application, VIOTR

SMILES: COC(=O)c1nc(-c2ccc(I)cc2)c(F)c(N)c1Cl [Compound 118, Methyl 4-amino-6-(4-iodophenyl)-3-chloro-5-fluoropicolinate]
- pest or weed control at 70 g/ha [1, 3]: 95 to 100%
- pest or weed control at 140 g/ha [1, 3]: 95 to 100%
- pest or weed control at 70 g/ha [1, 4]: 75 to 84%
- pest or weed control at 140 g/ha [1, 4]: 85 to 94%
- pest or weed control at 70 g/ha [1, 5]: 95 to 100%
- pest or weed control at 140 g/ha [1, 5]: 95 to 100%
- pest or weed control at 70 g/ha [1, 6]: 30 to 44%
- pest or weed control at 140 g/ha [1, 6]: 45 to 59%
- pest or weed control at 70 g/ha [1, 7]: 45 to 59%
- pest or weed control at 140 g/ha [1, 7]: 60 to 74%
- pest or weed control at 70 g/ha [1, 8]: 95 to 100%
- pest or weed control at 140 g/ha [1, 8]: 95 to 100%
- pest or weed control at 70 g/ha [1, 9]: 75 to 84%
- pest or weed control at 140 g/ha [1, 9]: 75 to 84%
- pest or weed control at 70 g/ha [1, 10]: 60 to 74%
- pest or weed control at 140 g/ha [1, 10]: 85 to 94%
- pest or weed control at 70 g/ha [2, 11]: 95 to 100%
- pest or weed control at 140 g/ha [2, 11]: 95 to 100%
- pest or weed control at 70 g/ha [2, 12]: 95 to 100%
- pest or weed control at 140 g/ha [2, 12]: 95 to 100%
- pest or weed control at 70 g/ha [2, 13]: 95 to 100%
- pest or weed control at 140 g/ha [2, 13]: 95 to 100%
- pest or weed control at 70 g/ha [2, 14]: 95 to 100%
- pest or weed control at 140 g/ha [2, 14]: 95 to 100%
- pest or weed control at 70 g/ha [2, 15]: 95 to 100%
- pest or weed control at 140 g/ha [2, 15]: 95 to 100%
- pest or weed control at 70 g/ha [2, 16]: 95 to 100%
- pest or weed control at 140 g/ha [2, 16]: 95 to 100%
- pest or weed control at 70 g/ha [2, 17]: 85 to 94%
- pest or weed control at 140 g/ha [2, 17]: 95 to 100%
